Values of other authors in US8304000B2, “Process for preparing water extract of cinnamon” (Beijing Tang-An Nutrition & Healthcare Products Co. Ltd., priority 2010, dated 2012).

solubility in alcohol (alcohol): readily soluble | solubility in water (water): poorly soluble
SMILES: O=c1ccc2ccccc2o1 [Coumarin, 1-benzopyran-2-one]
